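All cell lines were grown in 96-well plates and treated with compound for 48 hours. Abbreviation: GI50, concentration required for 50% inhibition of growth.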 Activity calls are given as the source filed them. Cut-off read from the data, not from the text of the source: active = GI50 up to about 1.1 µM and inactive = higher.
Tests used:
Assay in all cases: NCI tumour cell line growth inhibition, 48 h
OVCAR-5 = system: OVCAR-5
SK-MEL-28 = system: SK-MEL-28
K562 = system: K562
SF-295 = system: SF-295
UO-31 = system: UO-31
COLO 205 = system: COLO 205
MOLT-4 = system: MOLT-4
EKVX = system: EKVX
NCI-H226 = system: NCI-H226
NCI-H522 = system: NCI-H522
UACC-62 = system: UACC-62
HCC 2998 = system: HCC 2998
TK-10 = system: TK-10
NCI-H23 = system: NCI-H23
UACC-257 = system: UACC-257
SK-MEL-2 = system: SK-MEL-2
HL-60 = system: HL-60
SK-OV-3 = system: SK-OV-3
SW-620 = system: SW-620
ACHN = system: ACHN

For `O=P(CCOc1ccccc1OCCP(=O)(c1ccccc1)c1ccc2c(c1)OCCOCCOCCOCCO2)(c1ccccc1)c1ccc2c(c1)OCCOCCOCCOCCO2` (configuration not stated), the GI50 (OVCAR-5) was > 100 µM (inactive), the GI50 (SK-MEL-28) was > 100 µM (inactive) and the GI50 (K562) was > 100 µM (inactive). The GI50 (SF-295) was > 100 µM (inactive), the GI50 (UO-31) was > 100 µM (inactive) and the GI50 (COLO 205) was > 100 µM (inactive). The GI50 (MOLT-4) was > 100 µM (inactive), the GI50 (EKVX) was > 100 µM (inactive) and the GI50 (NCI-H226) was > 100 µM (inactive). For the same molecule, the GI50 (NCI-H522) was > 100 µM (inactive), the GI50 (UACC-62) was > 100 µM (inactive) and the GI50 (HCC 2998) was > 100 µM (inactive). The GI50 (TK-10) was > 100 µM (inactive), the GI50 (NCI-H23) was > 100 µM (inactive) and the GI50 (UACC-257) was > 100 µM (inactive). For the same molecule, the GI50 (SK-MEL-2) was > 100 µM (inactive), the GI50 (HL-60) was > 100 µM (inactive) and the GI50 (SK-OV-3) was > 100 µM (inactive). For the same molecule, the GI50 (SW-620) was > 100 µM (inactive) and the GI50 (ACHN) was > 100 µM (inactive).

With `Cc1nc2cccc(F)c2c(=O)n1C1CCCCNC1=O` (configuration not stated) the GI50 (OVCAR-5) was > 10 µM (inactive), the GI50 (SK-MEL-28) was > 10 µM (inactive) and the GI50 (K562) was > 10 µM (inactive). For the same molecule, the GI50 (SF-295) was > 10 µM (inactive), the GI50 (UO-31) was > 10 µM (inactive) and the GI50 (COLO 205) was > 10 µM (inactive). The GI50 (MOLT-4) was > 10 µM (inactive), the GI50 (EKVX) was > 10 µM (inactive) and the GI50 (NCI-H226) was > 10 µM (inactive). For the same molecule, the GI50 (NCI-H522) was > 10 µM (inactive), the GI50 (UACC-62) was > 10 µM (inactive) and the GI50 (HCC 2998) was > 10 µM (inactive). For the same molecule, the GI50 (TK-10) was > 10 µM (inactive), the GI50 (NCI-H23) was > 10 µM (inactive) and the GI50 (UACC-257) was > 10 µM (inactive). For the same molecule, the GI50 (SK-MEL-2) was > 10 µM (inactive), the GI50 (HL-60) was > 10 µM (inactive) and the GI50 (SK-OV-3) was > 10 µM (inactive). The GI50 (SW-620) was > 10 µM (inactive) and the GI50 (ACHN) was > 10 µM (inactive).

For `COc1ccc(C2CC(c3sc(Nc4ccc(C)cc4)nc3C)=NN2)cc1` (configuration not stated), the GI50 (OVCAR-5) was 22.4 µM (inactive), the GI50 (SK-MEL-28) was 16.8 µM (inactive) and the GI50 (K562) was 12.8 µM (inactive). For the same molecule, the GI50 (SF-295) was 15 µM (inactive), the GI50 (UO-31) was 14.2 µM (inactive) and the GI50 (COLO 205) was 13.7 µM (inactive). For the same molecule, the GI50 (MOLT-4) was 8.34 µM (inactive), the GI50 (EKVX) was 20.5 µM (inactive) and the GI50 (NCI-H226) was 16.6 µM (inactive). For the same molecule, the GI50 (NCI-H522) was 15.3 µM (inactive), the GI50 (UACC-62) was 40 µM (inactive) and the GI50 (HCC 2998) was 15.8 µM (inactive). For the same molecule, the GI50 (NCI-H23) was 15.5 µM (inactive), the GI50 (UACC-257) was 15.8 µM (inactive) and the GI50 (SK-MEL-2) was 15.8 µM (inactive). For the same molecule, the GI50 (HL-60) was 7.64 µM (inactive), the GI50 (SK-OV-3) was 24.4 µM (inactive) and the GI50 (SW-620) was 18.8 µM (inactive).

In the case of `NC(=O)c1csc(C2O[C@@H](COP(=O)(O)OP(=O)(O)OC[C@H]3OC(n4cnc5c(N)ncnc54)[C@H](O)[C@@H]3O)[C@H](O)[C@@H]2O)n1` (some centres not stated), the GI50 (OVCAR-5) is reported as > 100 µM (inactive), the GI50 (SK-MEL-28) is reported as 30 µM (inactive) and the GI50 (K562) is reported as 23.6 µM (inactive). The GI50 (SF-295) was 30 µM (inactive), the GI50 (UO-31) was > 100 µM (inactive) and the GI50 (COLO 205) was > 100 µM (inactive). The GI50 (MOLT-4) was 59.2 µM (inactive), the GI50 (EKVX) was > 100 µM (inactive) and the GI50 (NCI-H226) was > 100 µM (inactive). The GI50 (NCI-H522) was 52.8 µM (inactive), the GI50 (UACC-62) was 72.1 µM (inactive) and the GI50 (HCC 2998) was > 100 µM (inactive). For the same molecule, the GI50 (TK-10) was > 100 µM (inactive), the GI50 (NCI-H23) was > 100 µM (inactive) and the GI50 (UACC-257) was 66.8 µM (inactive). For the same molecule, the GI50 (SK-MEL-2) was > 100 µM (inactive), the GI50 (HL-60) was 67.3 µM (inactive) and the GI50 (SK-OV-3) was > 100 µM (inactive). For the same molecule, the GI50 (SW-620) was > 100 µM (inactive) and the GI50 (ACHN) was > 100 µM (inactive).

For `CC(=O)O[C@@H]1C2=C(C3=C([O-])C4=CC=CC(=O)C4C(=O)C3=C2[N+]#N)[C@H](OC(C)=O)[C@@H](OC(C)=O)[C@]1(C)O` (some centres not stated), the GI50 (OVCAR-5) was 0.353 µM (active), the GI50 (SK-MEL-28) was 0.743 µM (active) and the GI50 (K562) was 0.151 µM (active). For the same molecule, the GI50 (SF-295) was 0.385 µM (active), the GI50 (UO-31) was 0.561 µM (active) and the GI50 (MOLT-4) was 0.0959 µM (active). For the same molecule, the GI50 (EKVX) was 0.605 µM (active), the GI50 (NCI-H226) was 0.537 µM (active) and the GI50 (NCI-H522) was 0.173 µM (active). For the same molecule, the GI50 (UACC-62) was 0.661 µM (active), the GI50 (HCC 2998) was 0.262 µM (active) and the GI50 (TK-10) was 0.484 µM (active). The GI50 (NCI-H23) was 0.746 µM (active), the GI50 (UACC-257) was 0.719 µM (active) and the GI50 (SK-MEL-2) was 0.832 µM (active). For the same molecule, the GI50 (HL-60) was 0.105 µM (active), the GI50 (SK-OV-3) was 0.731 µM (active) and the GI50 (SW-620) was 0.284 µM (active). The GI50 (ACHN) was 0.141 µM (active).
